Assay [1] deals with T1, human ER Alpha ligand-binding domain (LBD) (Homo sapiens, UniProt P03372).
T1 construct: purchased Thermo Fisher Scientific
T1 sequence (P03372 311-547 limits assumed): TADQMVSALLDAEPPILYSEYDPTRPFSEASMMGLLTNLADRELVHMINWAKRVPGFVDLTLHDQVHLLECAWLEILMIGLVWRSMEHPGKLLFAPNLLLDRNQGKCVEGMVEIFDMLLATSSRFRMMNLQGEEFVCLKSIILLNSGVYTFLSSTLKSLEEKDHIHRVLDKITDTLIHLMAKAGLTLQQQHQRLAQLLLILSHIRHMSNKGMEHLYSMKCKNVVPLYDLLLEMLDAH
In words: TR-FRET competitive binding assay, ERα LBD. The settings on record: displacement of fluorescent tracer from ERα LBD. The source says:
TR-FRET Assay. LanthaScreen® TR-FRET ER Alpha and Beta Competitive Binding Assay kits from Thermo Fisher Scientific were used to perform the TR-FRET assays. These included a terbium-labeled anti-GST antibody, a fluorescent small molecule ER Alpha or Beta ligand as a “tracer”, and a human ER Alpha or Beta ligand -binding domain (LBD) that is tagged with glutathione-S-transferase (GST) in a homogenous mix- and -read assay format.
The TR-FRET assay employs a Tb-anti-GST antibody that binds to a GST tag, and a fluorescently labeled estrogen (tracer) binds in the active site pocket. The TR-FRET signal obtained decreases when competitor compounds displace the fluorescently labeled tracer. Assays were performed according to kit instructions. Briefly, 1:5 dilution series of compounds were made with DMSO, then diluted in assay buffer such that the highest concentration tested in the assay was 50 μM for ERβ and 50 μM for ERα and DMSO was 1%. […] TR-FRET signal was read on a SpectraMax M5 (Molecular Devices) set-up according to Thermo Fisher Scientific machine settings (excitation of 332 nm, emissions 518 nm and 488 nm with a 420 nm cutoff, 50 μs integration delay, 400 μs integration time, and 100 flashes per read). The TR-FRET ratio was calculated using the SoftmaxPro software by dividing the emission at 518 nm (fluorescein) by the emission at 488 nm (Terbium). […]
A general note: In TR-FRET formats the signal depends on donor and acceptor labels being close together.

Assay [2] deals with T2, Glucocorticoid Receptor (GR) (Homo sapiens, UniProt P04150).
T2 sequence (P04150 524-758 limits assumed): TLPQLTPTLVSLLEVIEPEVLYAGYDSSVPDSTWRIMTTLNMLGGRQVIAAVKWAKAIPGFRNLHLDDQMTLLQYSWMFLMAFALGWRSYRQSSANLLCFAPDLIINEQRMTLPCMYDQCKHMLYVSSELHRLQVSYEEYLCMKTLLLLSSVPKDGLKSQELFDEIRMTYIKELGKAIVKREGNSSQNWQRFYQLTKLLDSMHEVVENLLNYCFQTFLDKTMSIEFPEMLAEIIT
Nature of the assay: GeneBLAzer nuclear hormone receptor specificity assay, GR. Type of assay: cell-based. The settings on record: 0.25 to 25 μM; listed as ISP358-2.

In assay [3] the target is T3, Mineralocorticoid Receptor (MR) (Homo sapiens, UniProt P08235).
T3 sequence (P08235 726-964 limits assumed): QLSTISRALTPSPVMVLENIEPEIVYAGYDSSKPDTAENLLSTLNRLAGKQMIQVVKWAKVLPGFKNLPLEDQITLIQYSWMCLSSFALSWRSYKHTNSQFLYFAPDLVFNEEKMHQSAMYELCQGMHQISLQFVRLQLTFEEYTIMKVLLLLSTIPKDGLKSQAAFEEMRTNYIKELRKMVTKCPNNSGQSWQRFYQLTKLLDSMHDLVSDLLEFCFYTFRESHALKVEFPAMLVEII
Nature of the assay: GeneBLAzer nuclear hormone receptor specificity assay, MR. The format is cell-based. To be noted: 0.25 to 25 μM; listed as ISP358-2.

In assay [4] the target is T4, Peroxisome Proliferator-Activated Receptor (PPARδ) (Homo sapiens, UniProt Q03181).
T4 sequence (Q03181 211-439 limits assumed): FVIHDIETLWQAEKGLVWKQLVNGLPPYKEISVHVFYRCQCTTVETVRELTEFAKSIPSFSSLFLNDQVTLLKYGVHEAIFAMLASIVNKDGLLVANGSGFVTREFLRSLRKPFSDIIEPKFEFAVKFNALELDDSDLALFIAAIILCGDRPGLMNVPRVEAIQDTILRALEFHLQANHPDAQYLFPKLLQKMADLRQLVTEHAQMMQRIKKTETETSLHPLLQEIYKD
Nature of the assay: GeneBLAzer nuclear hormone receptor specificity assay, PPARδ. The settings on record: 0.25 to 25 μM; listed as ISP358-2. The format is cell-based. On the procedure: Nuclear Hormone Receptor Specificity Assay. Selectivity measurements were performed using the SelectScreen™ cell-based nuclear receptor profiling service from ThermoFisher (FIG. 3A). This is a FRET-based assay that uses GeneBLAzer™ technology. It detects ligand binding to and activation of a nuclear hormone receptor of interest (ligand binding domain; LBD) that is fused to a GAL4 DNA binding domain (DBD), which upon activation induces expression of beta-lactamase. The assay has a Z′≥0.5 in agonist mode. […]

For a further assay, the target named is T5, ERα (Homo sapiens, UniProt P03372).
T5 construct: employs a full length and native ER (comprised of an ER LBD and an ER DBD)
T5 sequence (P03372 1-595): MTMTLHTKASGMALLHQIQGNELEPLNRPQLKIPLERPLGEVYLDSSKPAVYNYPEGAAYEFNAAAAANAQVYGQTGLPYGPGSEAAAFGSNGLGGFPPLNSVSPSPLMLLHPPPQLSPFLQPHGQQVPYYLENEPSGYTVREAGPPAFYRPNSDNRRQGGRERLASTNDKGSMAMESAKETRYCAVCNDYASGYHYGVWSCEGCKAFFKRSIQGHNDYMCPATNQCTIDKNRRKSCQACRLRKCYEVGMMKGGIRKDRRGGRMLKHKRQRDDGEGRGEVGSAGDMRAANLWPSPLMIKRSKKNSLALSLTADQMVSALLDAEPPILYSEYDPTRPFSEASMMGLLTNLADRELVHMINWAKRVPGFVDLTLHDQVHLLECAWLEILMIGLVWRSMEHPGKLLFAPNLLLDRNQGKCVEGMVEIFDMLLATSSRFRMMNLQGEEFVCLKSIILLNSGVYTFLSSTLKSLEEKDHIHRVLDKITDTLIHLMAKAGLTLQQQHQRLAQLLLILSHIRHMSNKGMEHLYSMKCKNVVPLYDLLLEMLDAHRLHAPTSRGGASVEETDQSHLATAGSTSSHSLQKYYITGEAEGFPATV
In words: Cell-based luciferase reporter assay, full length ERα, agonist mode. To be noted: full length ERα, 22 h, read-out: ERα agon. IC50.

This is an account of results in patent US20240327421A1 (Marquette University, priority 2017, published 2024).

Structures are written as SMILES. “And” between values parts separate entries of the source, which are not always exact repeats. Equal entries are not always repeated. “Also recorded” adds a separate entry of the source.

With `OC[C@H]1CC[C@H](c2ccc(O)cc2)CC1` [Compound 16], the 50% inhibitory concentration (IC50) in assay [1] was 0.289 ± 0.092 µM; at ERα, 20.4 µM and 18.6 µM. The “agonist activity, GR” value in assay [2] was “not an agonist; also recorded: no significant off-target activity”. Further, the “agonist activity, MR” value in assay [3] is given as “not an agonist; also recorded: no significant off-target activity”. In assay [4], the “agonist activity, PPARδ” value is reported as “not an agonist; also recorded: no significant off-target activity”.

Usually IC50 stands for the midpoint of a concentration-inhibition curve.
